The record followed here is patent publication US11065257B2, “Substituted pyrazoloazepin-4-ones and their use as phosphodiesterase inhibitors” (LEO Pharma A/S, priority 2016, dated 2021).

T1 sequence (Q08499 380-740): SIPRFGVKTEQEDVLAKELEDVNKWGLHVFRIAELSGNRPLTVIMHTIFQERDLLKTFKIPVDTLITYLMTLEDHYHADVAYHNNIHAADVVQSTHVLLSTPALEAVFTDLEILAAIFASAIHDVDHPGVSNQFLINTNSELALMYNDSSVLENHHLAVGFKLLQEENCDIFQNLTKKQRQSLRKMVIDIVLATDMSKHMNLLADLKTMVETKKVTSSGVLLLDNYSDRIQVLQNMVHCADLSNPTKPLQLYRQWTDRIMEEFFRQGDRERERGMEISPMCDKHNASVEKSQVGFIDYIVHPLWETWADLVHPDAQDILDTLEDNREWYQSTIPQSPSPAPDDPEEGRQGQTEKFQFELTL

The experiment addresses T1, human PDE4D catalytic domain (Homo sapiens, UniProt Q08499).
T1 construct: UniProt no; Q08499 [S380-L740]
Kind of experiment: PDE4 Assay. In kind it is biochemical. Particulars: human PDE4D catalytic domain (S380-L740), TR-FRET with FAM-cAMP; expressed as a range of IC50; read-out: PDE4 Potency Range. Here is the method:
The human PDE4D catalytic domain (UniProt no. Q08499 [S380-L740]) was incubated with a mixture of non-labelled cAMP (cyclic adenosine monophosphate) and fluorescein amidite (FAM) conjugated cAMP and titrated test or reference compound. Following brief incubation the enzymatic reaction was stopped by addition of binding buffer containing nanoparticles with immobilized trivalent metal ions capable of binding 1) AMP phospho groups and 2) terbium (Tb) donor fluorophores. Subsequent excitation of the Tb donor triggers time-resolved FRET to adjacent FAM acceptor molecules resulting in light emission. In the presence of a PDE4 inhibitor, AMP generation was reduced resulting in a lower fluorescence signal. The cAMP phosphodiester is not bound by the detection system.
The results were calculated as the molar concentrations resulting in 50% inhibition of the substrate cleavage compared to controls samples, and are expressed as a range of IC50 (nM).
Take `CCc1nn(CCCOC(=O)c2cnnn2C)c2c1C(=O)NCC1(CCOCC1)C2` [Example 49, 3-(3-ethyl-4-oxo-spiro[6,8-dihydro-5H-pyrazolo[4,3-c]azepine-7,4′-tetrahydropyran]-1-yl)propyl 3-methyltriazole-4-carboxylate]: the IC50 lay in the range of 0.1 to 0.5 µM. Regarding `CCc1nn(CCCOC(=O)c2nnc(C)[nH]2)c2c1C(=O)NCC1(CCOCC1)C2` [Example 50, 3-(3-ethyl-4-oxo-spiro[6,8-dihydro-5H-pyrazolo[4,3-c]azepine-7,4′-tetrahydropyran]-1-yl)propyl 5-methyl-4H-1,2,4-triazole-3-carboxylate], the IC50 is greater than 0.5 µM. Consider `CCc1nn(CCCOC(=O)c2nonc2C)c2c1C(=O)NCC1(CCOCC1)C2` [Example 51, 3-(3-ethyl-4-oxo-spiro[6,8-dihydro-5H-pyrazolo[4,3-c]azepine-7,4′-tetrahydropyran]-1-yl)propyl 4-methyl-1,2,5-oxadiazole-3-carboxylate], for which the IC50 is 0.1 to 0.5 µM. On to `CCc1nn(CCCOC(=O)c2cc(O)no2)c2c1C(=O)NCC1(CCOCC1)C2` [Example 52, 3-(3-ethyl-4-oxo-spiro[6,8-dihydro-5H-pyrazolo[4,3-c]azepine-7,4′-tetrahydropyran]-1-yl)propyl 3-hydroxyisoxazole-5-carboxylate], for which the IC50 was 0.1 to 0.5 µM.

In the case of `CCc1nn(CCCOC(=O)c2ccsn2)c2c1C(=O)NCC1(CCOCC1)C2` [Example 53, 3-(3-ethyl-4-oxo-spiro[6,8-dihydro-5H-pyrazolo[4,3-c]azepine-7,4′-tetrahydropyran]-1-yl)propyl isothiazole-3-carboxylate], the IC50 lay within 0.1 to 0.5 µM.

For the molecule `CCc1nn(CCCOC(=O)c2ccns2)c2c1C(=O)NCC1(CCOCC1)C2` [Example 54, 3-(3-ethyl-4-oxo-spiro[6,8-dihydro-5H-pyrazolo[4,3-c]azepine-7,4′-tetrahydropyran]-1-yl)propyl isothiazole-5-carboxylate], the IC50 lay in the range of 0.1 to 0.5 µM. As to `CCc1nn(CCCOC(=O)c2cnsc2)c2c1C(=O)NCC1(CCOCC1)C2` [Example 55, 3-(3-ethyl-4-oxo-spiro[6,8-dihydro-5H-pyrazolo[4,3-c]azepine-7,4′-tetrahydropyran]-1-yl)propyl isothiazole-4-carboxylate], the IC50 is 0.1 to 0.5 µM.

Take `CCc1nn(CCCOC(=O)c2cncs2)c2c1C(=O)NCC1(CCOCC1)C2` [Example 56, 3-(3-ethyl-4-oxo-spiro[6,8-dihydro-5H-pyrazolo[4,3-c]azepine-7,4′-tetrahydropyran]-1-yl)propyl thiazole-5-carboxylate]: the IC50 is 0.1 to 0.5 µM. For the molecule `CCc1nn(CCCOC(=O)c2csnn2)c2c1C(=O)NCC1(CCOCC1)C2` [Example 57, 3-(3-ethyl-4-oxo-spiro[6,8-dihydro-5H-pyrazolo[4,3-c]azepine-7,4′-tetrahydropyran]-1-yl)propyl thiadiazole-4-carboxylate], the IC50 was in the range of 0.1 to 0.5 µM.

`CCc1nn(CCCOC(=O)C2CCCOC2)c2c1C(=O)NCC1(CCOCC1)C2` (centres unmarked) [Example 58, 3-(3-ethyl-4-oxo-spiro[6,8-dihydro-5H-pyrazolo[4,3-c]azepine-7,4′-tetrahydropyran]-1-yl)propyl tetrahydropyran-3-carboxylate]: the IC50 was greater than 0.5 µM. Regarding `CCc1nn(CCCOC(=O)C2CCOCC2)c2c1C(=O)NCC1(CCOCC1)C2` [Example 59, 3-(3-ethyl-4-oxo-spiro[6,8-dihydro-5H-pyrazolo[4,3-c]azepine-7,4′-tetrahydropyran]-1-yl)propyl tetrahydropyran-4-carboxylate], the IC50 is greater than 0.5 µM. Then `CCc1nn(CCCOC(=O)C2CCSC2)c2c1C(=O)NCC1(CCOCC1)C2` (centres unmarked) [Example 60, 3-(3-ethyl-4-oxo-spiro[6,8-dihydro-5H-pyrazolo[4,3-c]azepine-7,4′-tetrahydropyran]-1-yl)propyl tetrahydrothiophene-3-carboxylate], with 0.1 to 0.5 µM. `CCc1nn(CCCOC(=O)c2ccc(C)cn2)c2c1C(=O)NCC1(CCOCC1)C2` [Example 61, 3-(3-ethyl-4-oxo-spiro[6,8-dihydro-5H-pyrazolo[4,3-c]azepine-7,4′-tetrahydropyran]-1-yl)propyl 5-methylpyridine-2-carboxylate]: the IC50 lay in the range of 0.1 to 0.5 µM. Then `CCc1nn(CCCOC(=O)c2ncccc2C)c2c1C(=O)NCC1(CCOCC1)C2` [Example 62, 3-(3-ethyl-4-oxo-spiro[6,8-dihydro-5H-pyrazolo[4,3-c]azepine-7,4′-tetrahydropyran]-1-yl)propyl 3-methylpyridine-2-carboxylate], with greater than 0.5 µM. As to `CCc1nn(CCCOC(=O)c2cc(C)ccn2)c2c1C(=O)NCC1(CCOCC1)C2` [Example 63, 3-(3-ethyl-4-oxo-spiro[6,8-dihydro-5H-pyrazolo[4,3-c]azepine-7,4′-tetrahydropyran]-1-yl)propyl 4-methylpyridine-2-carboxylate], the IC50 is greater than 0.5 µM. Regarding `CCc1nn(CCCOC(=O)c2cccc(C)n2)c2c1C(=O)NCC1(CCOCC1)C2` [Example 64, 3-(3-ethyl-4-oxo-spiro[6,8-dihydro-5H-pyrazolo[4,3-c]azepine-7,4′-tetrahydropyran]-1-yl)propyl 6-methylpyridine-2-carboxylate], the IC50 was greater than 0.5 µM. As for `CCc1nn(CCCOC(=O)c2cccnc2C)c2c1C(=O)NCC1(CCOCC1)C2` [Example 65, 3-(3-ethyl-4-oxo-spiro[6,8-dihydro-5H-pyrazolo[4,3-c]azepine-7,4′-tetrahydropyran]-1-yl)propyl 2-methylpyridine-3-carboxylate], the IC50 lay within 0.1 to 0.5 µM.

For the molecule `CCc1nn(CCCOC(=O)c2ncc(C)cn2)c2c1C(=O)NCC1(CCOCC1)C2` [Example 66, 3-(3-ethyl-4-oxo-spiro[6,8-dihydro-5H-pyrazolo[4,3-c]azepine-7,4′-tetrahydropyran]-1-yl)propyl 5-methylpyrimidine-2-carboxylate], the IC50 is greater than 0.5 µM. On to `CCc1nn(CCCOC(=O)c2ccnnc2C)c2c1C(=O)NCC1(CCOCC1)C2` [Example 67, 3-(3-ethyl-4-oxo-spiro[6,8-dihydro-5H-pyrazolo[4,3-c]azepine-7,4′-tetrahydropyran]-1-yl)propyl 3-methylpyridazine-4-carboxylate], for which the IC50 was greater than 0.5 µM. Regarding `CCc1nn(CCCOC(=O)c2ccnc(C)n2)c2c1C(=O)NCC1(CCOCC1)C2` [Example 68, 3-(3-ethyl-4-oxo-spiro[6,8-dihydro-5H-pyrazolo[4,3-c]azepine-7,4′-tetrahydropyran]-1-yl)propyl 2-methylpyrimidine-4-carboxylate], the IC50 was greater than 0.5 µM. Then `CCc1nn(CCCOC(=O)c2nccc(C)n2)c2c1C(=O)NCC1(CCOCC1)C2` [Example 69, 3-(3-ethyl-4-oxo-spiro[6,8-dihydro-5H-pyrazolo[4,3-c]azepine-7,4′-tetrahydropyran]-1-yl)propyl 4-methylpyrimidine-2-carboxylate], with greater than 0.5 µM.

Turning to `CCc1nn(CCCOC(=O)c2cnc(C)nc2)c2c1C(=O)NCC1(CCOCC1)C2` [Example 70, 3-(3-ethyl-4-oxo-spiro[6,8-dihydro-5H-pyrazolo[4,3-c]azepine-7,4′-tetrahydropyran]-1-yl)propyl 2-methylpyrimidine-5-carboxylate], the IC50 fell in the range of 0.1 to 0.5 µM. Then `CCc1nn(CCCOC(=O)c2cc(C)nn2C)c2c1C(=O)NCC1(CCOCC1)C2` [Example 71, 3-(3-ethyl-4-oxo-spiro[6,8-dihydro-5H-pyrazolo[4,3-c]azepine-7,4′-tetrahydropyran]-1-yl)propyl 2,5-dimethylpyrazole-3-carboxylate], with 0.1 to 0.5 µM. For the molecule `CCc1nn(CCCOC(=O)c2cc(C)n(C)n2)c2c1C(=O)NCC1(CCOCC1)C2` [Example 72, 3-(3-ethyl-4-oxo-spiro[6,8-dihydro-5H-pyrazolo[4,3-c]azepine-7,4′-tetrahydropyran]-1-yl)propyl 1,5-dimethylpyrazole-3-carboxylate], the IC50 was greater than 0.5 µM. For the molecule `CCc1nn(CCCOC(=O)c2cnc(C)n2C)c2c1C(=O)NCC1(CCOCC1)C2` [Example 73, 3-(3-ethyl-4-oxo-spiro[6,8-dihydro-5H-pyrazolo[4,3-c]azepine-7,4′-tetrahydropyran]-1-yl)propyl 2,3-dimethylimidazole-4-carboxylate], the IC50 lay in the range of 0.1 to 0.5 µM.

For `CCc1nn(CCCOC(=O)c2noc(C)c2C)c2c1C(=O)NCC1(CCOCC1)C2` [Example 74, 3-(3-ethyl-4-oxo-spiro[6,8-dihydro-5H-pyrazolo[4,3-c]azepine-7,4′-tetrahydropyran]-1-yl)propyl 4,5-dimethylisoxazole-3-carboxylate], the IC50 was in the range of 0.1 to 0.5 µM. In the case of `CCc1nn(CCCOC(=O)c2c(C)noc2C)c2c1C(=O)NCC1(CCOCC1)C2` [Example 75, 3-(3-ethyl-4-oxo-spiro[6,8-dihydro-5H-pyrazolo[4,3-c]azepine-7,4′-tetrahydropyran]-1-yl)propyl 3,5-dimethylisoxazole-4-carboxylate] it was greater than 0.5 µM; in that of `CCc1nn(CCCOC(=O)c2nc(C)oc2C)c2c1C(=O)NCC1(CCOCC1)C2` [Example 76, 3-(3-ethyl-4-oxo-spiro[6,8-dihydro-5H-pyrazolo[4,3-c]azepine-7,4′-tetrahydropyran]-1-yl)propyl 2,5-dimethyloxazole-4-carboxylate], greater than 0.5 µM. In the case of `CCc1nn(CCCOC(=O)C2CN(C(C)=O)C2)c2c1C(=O)NCC1(CCOCC1)C2` [Example 77, 3-(3-ethyl-4-oxo-spiro[6,8-dihydro-5H-pyrazolo[4,3-c]azepine-7,4′-tetrahydropyran]-1-yl)propyl 1-acetylazetidine-3-carboxylate] it was greater than 0.5 µM.
